Assay results published in PMC6934184, “Selective DNA-PKcs inhibition extends the therapeutic index of localized radiotherapy and chemotherapy” (The Journal of Clinical Investigation, 2019).

Target: T1, CDK2/cyclin E1 (Homo sapiens, UniProt P24941)
T1 construct: purchased Thermo Fisher Scientific (Life Technologies) SelectScreen
Experiment: SelectScreen LanthaScreen
Type: binding
Conditions: 1 µM
Summary of the method: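 NU5455 was profiled across the SelectScreen Broad panel of kinase activity and binding assays. Z'LYTE reactions such as CSF1R ran at apparent Km ATP, while the Adapta CAMK1 assay used ATP listed as 10. Values are given as percent.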

## CN(C(=O)CN1CCOCC1)c1ccc2sc3c(-c4cccc5c(=O)cc(N6CC7CCC(C6)O7)oc45)cccc3c2c1 [NU5455]
  % displacement: 2.7%
